{"source": "patent US20220265614A1", "about": "“TREATMENT COMPRISING FXR AGONISTS” (Novartis AG, priority 2019, published 2022)", "key": {"human hepatocytes": {"tested_on": "human hepatocytes", "test": "In vitro human hepatocytes treated with FXR agonists: LDL uptake", "type": "cell-based", "conditions": "FIG. 5", "description": "In addition, FXR agonist treatments have been associated with lipid abnormalities, including increases in peripheral LDL (Neuschwander-Tetri et al, The Lancet 2015; 385: 956-965). The reduction of the bile acid pathway by FXR agonists could lead to intracytoplasmic increase in cholesterol in the hepatocytes. Increase cholesterol in hepatocytes is associated with a counter mechanism of decrease LDL receptor on the surface of the cells (Goldstein et al Circulation. 1987 September;76(3):504-7). Such a decrease in the LDL receptor on the surface of the hepatocytes will ultimately result in an increase in circulating LDL; the phenotype observed in the clinics. […] To mitigate the increase in circulating LDL, it is proposed to administer a FXR agonist to the subjects in need thereof in the evening (e.g. from about 6 pm to about 12 pm, preferably from about 8 pm to about 11 pm, preferably around 9 pm) to reduce the impact of the FXR agonist on circulating LDL.\nTo mitigate the increase in peripheric LDL, we hypothesize that treating the subjects in the evening (from about 6 pm to about 12 pm, e.g. from about 8 pm to about 11 pm, preferably around 9 pm) would be reduce the impact of the drug on LDL. […]"}, "NASH patients [1]": {"tested_on": "NASH patients", "conditions": "cited from earlier work"}, "NASH patients [2]": {"tested_on": "NASH patients", "test": "Parts A and B of study CLJN452A2202 in NASH patients, 12 weeks"}, "[3]": {"tested_on": "patients with biopsy-proven NASH and fibrosis stages 2-3", "test": "FLIGHT-FXR (NCT02855164) Part C interim analysis at week 12", "type": "in vivo, human", "description": "Prespecified endpoints assessed at week 12 included overall safety and changes in alanine aminotransferase (ALT), hepatic fat fraction (HFF), gamma glutamyl transferase (GGT), and body weight."}, "[4]": {"conditions": "all doses (10, 30, 60 and 90 μg), 12 weeks"}, "[5]": {"conditions": "higher doses (140 μg, 200 μg), after 12 weeks of treatment"}}, "data": [{"smiles": "CC[C@H]1[C@@H](O)[C@@H]2[C@H](CC[C@]3(C)[C@@H]([C@H](C)CCC(=O)O)CC[C@@H]23)[C@@]2(C)CC[C@@H](O)C[C@@H]12", "note": "[obeticholic acid, 6α-ethyl-chenodeoxycholic acid]", "values": [{"measurement": "LDL uptake by hepatocytes", "setting": "human hepatocytes", "value": "reduce the LDL uptake by hepatocytes in a dose dependent manner"}, {"measurement": "adverse effects of long term administration: pruritus", "setting": "NASH patients [1]", "value": "most common adverse effect"}, {"measurement": "lipid abnormalities: low density lipoprotein (LDL) cholesterol", "setting": "NASH patients [1]; long term administration", "value": "increased"}]}, {"smiles": "O=C(O)c1ccnc(N2CC(O)(c3ccc(OCc4c(-c5c(Cl)cccc5Cl)noc4C4CC4)cc3Cl)C2)c1", "note": "[cilofexor]", "values": [{"measurement": "LDL uptake by hepatocytes", "setting": "human hepatocytes", "value": "reduce the LDL uptake by hepatocytes in a dose dependent manner"}]}, {"smiles": "O=C(O)c1cc(F)c2nc(N3C4CCC3CC(OCc3c(-c5ccccc5OC(F)(F)F)noc3C3CC3)C4)sc2c1", "note": "[Tropifexor, 2-[(1R,3r,5S)-3-({5-cyclopropyl-3-[2-(trifluoromethoxy)phenyl]-1,2-oxazol-4-yl}methoxy)-8-azabicyclo[3.2.1]octan-8-yl]-4-fluoro-1,3-benzothiazole-6-carboxylic acid]", "values": [{"measurement": "biologic activity (GGT)", "setting": "NASH patients [2]; 10 to 90 μg daily for 12 weeks", "value": "clear dose response"}, {"measurement": "target engagement (FGF19)", "setting": "NASH patients [2]; 10 to 90 μg daily for 12 weeks", "value": "clear dose response"}, {"measurement": "efficacy based on biomarkers", "setting": "NASH patients [2]; 60 and 90 μg, Week 12", "value": "anti-inflammatory and anti-steatotic efficacy"}, {"measurement": "ALT compared to placebo", "setting": "NASH patients [2]; [4]", "value": "reduced"}, {"measurement": "hepatic fat fraction compared to placebo", "setting": "NASH patients [2]; [4]", "value": "reduced"}, {"measurement": "tolerability", "setting": "NASH patients [2]; up to 90 μg daily", "value": "generally well tolerated"}, {"measurement": "lipid changes that led to treatment discontinuation or dose reduction", "setting": "[3]; 140 μg and 200 μg, 12 weeks", "value": "None"}, {"measurement": "low density lipoprotein-cholesterol (LDL-C)", "setting": "[3]; 140 μg and 200 μg, 12 weeks", "value": "dose-related increase"}, {"measurement": "LS mean absolute change (SE) in ALT from baseline to Week 12", "setting": "[3]; 140 μg once daily, N = 50", "value": "−20.1 (4.57) U/L"}, {"measurement": "LS mean absolute change (SE) in GGT from baseline to Week 12", "setting": "[3]; 140 μg once daily, N = 50", "value": "−39.2 (3.70) U/L"}, {"measurement": "LS mean absolute change (SE) in body weight from baseline to Week 12", "setting": "[3]; 140 μg once daily, N = 50", "value": "−2.46 (0.38) kg"}, {"measurement": "frequency of serious adverse events", "setting": "[3]; 140 μg, 200 μg and placebo groups", "value": "low and comparable across groups"}, {"measurement": "treatment discontinuation rate due to pruritus", "setting": "[3]; 140 μg, n=1", "value": 2, "unit": "%"}, {"measurement": "prespecified endpoints at week 12", "setting": "[3]; 200 μg", "value": "met"}, {"measurement": "LS mean absolute change (SE) in ALT from baseline to Week 12", "setting": "[3]; 200 μg once daily, N = 51", "value": "−23.6 (4.48) U/L"}, {"measurement": "LS mean absolute change (SE) in GGT from baseline to Week 12", "setting": "[3]; 200 μg once daily, N = 51", "value": "−40.9 (3.62) U/L"}, {"measurement": "LS mean absolute change (SE) in body weight from baseline to Week 12", "setting": "[3]; 200 μg once daily, N = 51", "value": "−3.20 (0.37) kg"}, {"measurement": "treatment discontinuation rate due to pruritus", "setting": "[3]; 200 μg, n=3", "value": 6, "unit": "%"}, {"measurement": "patients with pruritus whose events were of mild (Grade 1) severity", "setting": "[3]; both Tropifexor groups (140 μg, 200 μg)", "value": "> 60", "unit": "%"}, {"measurement": "ALT, HFF, and body weight", "setting": "[3]; [5]", "value": "robust and dose-dependent decreases"}, {"measurement": "safety and tolerability", "setting": "[3]; [5]", "value": "good safety and tolerability"}]}]}
